In PubChem BioAssay AID324 (DTP/NCI, 2004):
“And” between values parts separate entries of the source, which are not always exact repeats. Equal entries are not always repeated. Inconclusive results and toxic doses are left out.

Test system: CD2F1 mice, AMSA-resistant P388 leukemia ip, median survival T/C
Test: NCI In Vivo Anticancer Drug Screen. Data for tumor model P388 Leukemia resistant to AMSA; NSC 249992 (intraperitoneal) in CD2F1 (CDF1) mice
Settings: endpoint: median survival time, higher = longer survival
Experimental: The antitumor activity of compounds was measured in mice bearing transplantable tumors. Survival or tumor size were measured and the results are expressed as the measurement made in the treated group (T) divided by the measurement made in the vehicle treated control group (C). The tumor model used in this assay is P388 Leukemia resistant to AMSA; NSC 249992 (intraperitoneal) in CD2F1 (CDF1) mice

[1] = dose: 1.62 mg/kg/injection, schedule: Q04DX003 (ip), vehicle: saline
[2] = dose: 4.5 mg/kg/injection, schedule: Q04DX003 (ip), vehicle: saline

SMILES: O=c1[nH]cc(F)c(=O)[nH]1
- T/C (dose: 21.6 mg/kg/injection, schedule: Q04DX003 (ip), vehicle: saline): 155 % of control
- T/C (dose: 36.0 mg/kg/injection, schedule: Q04DX003 (ip), vehicle: saline): 165 % of control
- T/C (dose: 60.0 mg/kg/injection, schedule: Q04DX003 (ip), vehicle: saline): 168 % of control
- T/C (dose: 100.0 mg/kg/injection, schedule: Q04DX003 (ip), vehicle: saline): 170 % of control

SMILES: Nc1ncn(C2OC(CO)C(O)C2O)c(=O)n1 (centres undefined)
- T/C (dose: 2.59 mg/kg/injection, schedule: Q04DX003 (ip), vehicle: saline): 156 % of control
- T/C (dose: 4.32 mg/kg/injection, schedule: Q04DX003 (ip), vehicle: saline): 200 % of control
- T/C (dose: 7.2 mg/kg/injection, schedule: Q04DX003 (ip), vehicle: saline): 200 % of control
- T/C (dose: 12.0 mg/kg/injection, schedule: Q04DX003 (ip), vehicle: saline): 211 % of control
- T/C (dose: 20.0 mg/kg/injection, schedule: Q04DX003 (ip), vehicle: saline): 276 % of control

SMILES: COc1cc([C@@H]2c3cc4c(cc3[C@@H](OC3OC5COC(C)OC5C(O)C3O)[C@H]3COC(=O)[C@H]23)OCO4)cc(OC)c1O (some centres undefined)
- T/C (dose: 6.24 mg/kg/injection, schedule: Q04DX003 (ip), vehicle: water): 124 % of control
- T/C (dose: 17.3 mg/kg/injection, schedule: Q04DX003 (ip), vehicle: water): 118 % of control
- T/C (dose: 18.0 mg/kg/injection, schedule: Q04DX003 (ip), vehicle: Klucel (hydroxypropylcellulose) (HPC)): 103 % of control
- T/C (dose: 27.0 mg/kg/injection, schedule: Q04DX003 (ip), vehicle: Klucel (hydroxypropylcellulose) (HPC)): 91 % of control
- T/C (dose: 28.8 mg/kg/injection, schedule: Q04DX003 (ip), vehicle: clinical formulation): 167 % of control
- T/C (dose: 28.8 mg/kg/injection, schedule: Q04DX003 (ip), vehicle: water): 162 % of control
- T/C (dose: 48.0 mg/kg/injection, schedule: Q04DX003 (ip), vehicle: water): 108 % of control
- T/C (dose: 60.0 mg/kg/injection, schedule: Q04DX003 (ip), vehicle: Klucel (hydroxypropylcellulose) (HPC)): 87 % of control

SMILES: COc1cccc2c1C(=O)c1c(O)c3c(c(O)c1C2=O)C[C@@](O)(C(C)=O)C[C@@H]3OC1CC(N)C(O)C(C)O1 (some centres undefined)
- T/C (dose: 0.64 mg/kg/injection, schedule: Q04DX003 (ip), vehicle: water): 115 % of control
- T/C (dose: 0.65 mg/kg/injection, schedule: Q04DX003 (ip), vehicle: saline): 103 % of control
- T/C (dose: 0.97 mg/kg/injection, schedule: Q04DX003 (ip), vehicle: saline): 121 % of control
- T/C (dose: 1.08 mg/kg/injection, schedule: Q04DX003 (ip), vehicle: saline): 115 % of control
- T/C (dose: 1.08 mg/kg/injection, schedule: Q04DX003 (ip), vehicle: water): 118 % of control
- T/C [1]: 123 % of control
- T/C (dose: 1.8 mg/kg/injection, schedule: Q04DX003 (ip), vehicle: saline): 124 % of control
- T/C (dose: 3.0 mg/kg/injection, schedule: Q04DX003 (ip), vehicle: saline): 117 % of control
- T/C (dose: 3.0 mg/kg/injection, schedule: Q04DX003 (ip), vehicle: water): 123 % of control
- T/C [2]: 119 % of control
- T/C (dose: 5.0 mg/kg/injection, schedule: Q04DX003 (ip), vehicle: water): 123 % of control

SMILES: CC[C@]1(O)C[C@H]2CN(CCc3c([nH]c4ccccc34)[C@@](C(=O)OC)(c3cc4c(cc3OC)N(C=O)[C@H]3[C@@](O)(C(=O)OC)[C@H](OC(C)=O)[C@]5(CC)C=CCN6CC[C@]43[C@@H]65)C2)C1
- T/C (dose: 0.72 mg/kg/injection, schedule: Q04DX003 (ip), vehicle: saline): 176 % of control
- T/C (dose: 1.0 mg/kg/injection, schedule: Q04DX003 (ip), vehicle: saline): 102 % of control
- T/C (dose: 1.2 mg/kg/injection, schedule: Q04DX003 (ip), vehicle: saline): 201 % of control
- T/C (dose: 2.0 mg/kg/injection, schedule: Q04DX003 (ip), vehicle: saline): 193 % of control

SMILES: N[C@@H](Cc1ccc(N(CCCl)CCCl)cc1)C(=O)O
- T/C [1]: 208 % of control
- T/C (dose: 1.94 mg/kg/injection, schedule: Q04DX002 (ip), vehicle: saline): 211 % of control and 212 % of control
- T/C (dose: 2.7 mg/kg/injection, schedule: Q04DX003 (ip), vehicle: saline): 211 % of control
- T/C (dose: 3.24 mg/kg/injection, schedule: Q04DX002 (ip), vehicle: saline): 259 % of control and 262 % of control
- T/C [2]: 391 % of control
- T/C (dose: 5.4 mg/kg/injection, schedule: Q04DX002 (ip), vehicle: saline): 416 % of control
- T/C (dose: 7.5 mg/kg/injection, schedule: Q04DX003 (ip), vehicle: saline): 391 % of control
- T/C (dose: 9.0 mg/kg/injection, schedule: Q04DX002 (ip), vehicle: saline): 416 % of control
- T/C (dose: 12.5 mg/kg/injection, schedule: Q04DX003 (ip), vehicle: saline): 391 % of control
- T/C (dose: 15.0 mg/kg/injection, schedule: Q04DX002 (ip), vehicle: saline): 120 % of control and 86 % of control

SMILES: CCN(CC)CCNc1ccc(C)c2sc3ccccc3c(=O)c12
- T/C (dose: 16.2 mg/kg/injection, schedule: Q01DX005 (ip), vehicle: saline): 101 % of control
- T/C (dose: 19.4 mg/kg/injection, schedule: Q01DX005 (ip), vehicle: water): 92 % of control
- T/C (dose: 27.0 mg/kg/injection, schedule: Q01DX005 (ip), vehicle: saline): 101 % of control
- T/C (dose: 45.0 mg/kg/injection, schedule: Q01DX005 (ip), vehicle: saline): 99 % of control
- T/C (dose: 54.0 mg/kg/injection, schedule: Q01DX005 (ip), vehicle: water): 90 % of control
- T/C (dose: 75.0 mg/kg/injection, schedule: Q01DX005 (ip), vehicle: saline): 94 % of control
- T/C (dose: 90.0 mg/kg/injection, schedule: Q01DX005 (ip), vehicle: water): 89 % of control
- T/C (dose: 125.0 mg/kg/injection, schedule: Q01DX005 (ip), vehicle: saline): 90 % of control

SMILES: O=NN(CCCl)C(=O)NCCCl
- T/C (dose: 3.89 mg/kg/injection, schedule: Q04DX003 (ip), vehicle: saline + alcohol): 164 % of control
- T/C (dose: 6.48 mg/kg/injection, schedule: Q04DX003 (ip), vehicle: saline + alcohol): 222 % of control
- T/C (dose: 10.8 mg/kg/injection, schedule: Q04DX003 (ip), vehicle: saline + alcohol): 267 % of control
- T/C (dose: 18.0 mg/kg/injection, schedule: Q04DX003 (ip), vehicle: saline + alcohol): 387 % of control
- T/C (dose: 30.0 mg/kg/injection, schedule: Q04DX003 (ip), vehicle: saline + alcohol): 115 % of control

SMILES: O=C1c2c(O)ccc(O)c2C(=O)c2c(NCCNCCO)ccc(NCCNCCO)c21
- T/C (dose: 1.3 mg/kg/injection, schedule: Q04DX002 (ip), vehicle: water): 110 % of control
- T/C (dose: 3.6 mg/kg/injection, schedule: Q04DX003 (ip), vehicle: saline): 157 % of control
- T/C (dose: 6.0 mg/kg/injection, schedule: Q04DX002 (ip), vehicle: water): 96 % of control
- T/C (dose: 6.0 mg/kg/injection, schedule: Q04DX003 (ip), vehicle: saline): 96 % of control and 123 % of control
- T/C (dose: 10.0 mg/kg/injection, schedule: Q04DX002 (ip), vehicle: water): 89 % of control

SMILES: CCCCC(=O)OCC(=O)[C@]1(O)Cc2c(O)c3c(c(O)c2[C@@H](OC2CC(NC(=O)C(F)(F)F)C(O)C(C)O2)C1)C(=O)c1c(OC)cccc1C3=O (some centres undefined)
- T/C (dose: 19.4 mg/kg/injection, schedule: Q04DX003 (ip), vehicle: clinical formulation): 106 % of control
- T/C (dose: 32.4 mg/kg/injection, schedule: Q04DX003 (ip), vehicle: clinical formulation): 117 % of control
- T/C (dose: 54.0 mg/kg/injection, schedule: Q04DX003 (ip), vehicle: clinical formulation): 120 % of control
- T/C (dose: 90.0 mg/kg/injection, schedule: Q04DX003 (ip), vehicle: clinical formulation): 113 % of control
